Laboratory results from PMC2976052 (The Journal of steroid biochemistry and molecular biology, 2010).
Read-outs that look alike come from different tables or passages of the source.

Assays:
parental C127 cell line = type: cell-based, murine; details: for nuclear fluorescence in parental cell line: hits retested in parental cell line; for nuclear translocation: parental cell line
6020 cells = assay: Cytotoxicity measurements by image analysis
GFP-GRER chimera [1] = target: T1, GFP-GRER chimera (Homo sapiens, UniProt P03372); details: ER agonist treatment ref 17; cited from earlier work
GFP-GRER chimera [2] = target: T1, GFP-GRER chimera; assay: cell-based
GFP-GRER chimera [3] = target: T1, GFP-GRER chimera
[4] = estradiol dose response, five 384-well plates
[5] = staurosporine dose-response, 4 hours, 96-well

T1 sequence (P03372 302-595, change not shown): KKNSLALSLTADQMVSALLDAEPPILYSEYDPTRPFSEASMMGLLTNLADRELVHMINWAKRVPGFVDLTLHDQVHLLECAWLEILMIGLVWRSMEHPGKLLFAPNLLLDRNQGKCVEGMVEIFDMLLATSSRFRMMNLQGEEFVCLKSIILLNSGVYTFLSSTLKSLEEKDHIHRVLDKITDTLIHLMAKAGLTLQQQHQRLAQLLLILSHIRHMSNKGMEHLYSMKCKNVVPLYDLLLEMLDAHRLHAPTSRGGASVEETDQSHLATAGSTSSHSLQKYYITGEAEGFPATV

C[C@]12CC[C@@H]3c4ccc(O)cc4CC[C@H]3[C@@H]1CC[C@@H]2O [estradiol, 17-β estradiol]
nuclear fluorescence in parental cell line (parental C127 cell line): did not show nuclear fluorescence | nuclear translocation (parental C127 cell line; 5 μM estradiol control): 0% | cytoplasmic area (6020 cells; [4]): does not decrease | nuclear area (6020 cells; [4]): remains unchanged

CCCc1c(-c2ccc(O)cc2)nn(-c2ccc(O)cc2)c1-c1ccc(O)cc1 [PPT, propyl pyrazoletriol]
effect on transcription, ERE-driven gene reporter (GFP-GRER chimera [1]): induced transcription | EC50 (GFP-GRER chimera [2]): 0.141 µM

COc1cccc2c1C(=O)c1c(O)c3c(c(O)c1C2=O)C[C@@](O)(C(=O)CO)C[C@@H]3O[C@H]1C[C@H](N)[C@H](O)[C@H](C)O1 [adriamycin]
nuclear translocation (GFP-GRER chimera [3]; 6020 (assay) cell line, hit retest in quadruplicate): 97% | nuclear translocation (parental C127 cell line; hit retest in quadruplicate): 95%

C[C@]12CC[C@@H]3c4ccc(O)cc4CC[C@H]3[C@@H]1CCC2=O [estrone]
nuclear fluorescence in parental cell line (parental C127 cell line): did not show nuclear fluorescence

O=C(c1ccc(OCCN2CCCCC2)cc1)c1c(-c2ccc(O)cc2)sc2cc(O)ccc12 [raloxifene]
nuclear translocation (parental C127 cell line; hit retest in quadruplicate): 0%

CN[C@@H]1C[C@H]2O[C@@](C)([C@@H]1OC)n1c3ccccc3c3c4c(c5c6ccccc6n2c5c31)C(=O)NC4 [staurosporine]
nuclear translocation result of cytotoxic compound (GFP-GRER chimera [3]; staurosporine dose-response for 4 hours, 96-well): false positive nuclear translocation results | cytoplasmic area (6020 cells; [5]): dose-dependent decrease in cytoplasmic area | nuclear area (6020 cells; [5]): dose-dependent decrease in nuclear area | ROIs (cell number) (6020 cells; staurosporine dose-response, data not shown): decrease in cell number with increasing staurosporine concentration
